US20170101385A1, “NOVEL ISOXAZOLES, A PROCESS FOR THEIR PREPARATION AND USES THEREOF” (Sanko Tekstil Isletmeleri San. Ve Tic. A.S., priority 2015, published 2017)

Test system: Staphylococcus aureus ATCC 6538
Assay: Antibacterial test on treated fabric (AATCC 147:2011; washing standard BS EN ISO 6330 5A)
Assay type: cell-based
Design: key to Bacteria Growth: (—): no bacterial colonies directly under the treated sample in the contact area were observed
Details: 37° C. ± 2° C., 18-24 hrs, no washing; for Bacteria Growth: directly under the treated fabric sample in the contact area; for Inhibition Zone (width of clear zone of inhibition): woven fabric treated with the compound, sample 25 × 50 mm
Procedure: In order to determine if the antimicrobic activity of the textile fabrics, Washing Standart: BS EN ISO 6330 5A and Antibacterial Test Standart: AATCC 147:2011 were followed. Details of the method are given in the experimental section of the description.
• Antibacterial tests were carried out using Washing Standart: BS EN ISO 6330 5A, and Antibacterial Test Standart: AATCC 147:2011.

Row | Compound | Bacteria Growth | Inhibition Zone (width of clear zone of inhibition) [mm]
1 | Cc1cc(/N=C/c2cccc3ccccc23)on1 [Example 1, 3-methyl-N-(1-naphthalenylmethylen)-5-isoxazolamine] | (—) | 0
2 | Cc1cc(/N=C/c2ccc3ccccc3c2)on1 [Example 2, 3-methyl-N-(2-naphthalenylmethylen)-5-isoxazolamine] | (—) | 0
3 | Cc1cc(/N=C/c2cc3ccccc3c3ccccc23)on1 [Example 3, 3-methyl-N-(9-phenanthrenylmethylen)-5-isoxazolamine] | (—) | 0
